Results: ChEMBL document CHEMBL1149004, “Ficulinic acid A and B, two novel cytotoxic straight-chain acids from the sponge Ficulina ficus” (1986)
≈ marks a conversion by molar mass, not a printed value. Calls of active or inactive are those of the source. The calls are words filed in the database; no cut-off is given here.

Legend:
[1] = system: Walker 256; experiment: Growth inhibition of rat Walker 256 cells; assay type: functional, cell-based
[2] = system: L1210; experiment: Cytotoxicity against mouse L1210 cells assessed as inhibition of DNA synthesis by [3H]thymidine incorporation assay; assay type: functional; conditions: read-out: ID50 (the source's name)

CCCCC/C=C\CCC(=O)CCCCCCO
Activity [1]: Active

CCCCCCC/C=C/C(=O)CCCCCCCC(CCCCCCC)C(=O)O (stereo not drawn) [FICULINIC ACID A]
IC50 [2]: 10 µg/mL (≈ 24.5 µM)

CCCCCCC/C=C/C(=O)CCCCCCCCCC(CCCCCCC)C(=O)O (stereo not drawn) [FICULINIC ACID B]
IC50 [2]: 12 µg/mL (≈ 27.5 µM)
